Measured values taken from patent US11241013B2, “Benzimidazole compounds as agricultural chemicals” (REDAG CROP PROTECTION LTD, priority 2017, dated 2022).

How the values were obtained:
Pythium ultimum = assay: Amended agar assay; type: cell-based; set-up: key to % control Pythium ultimum 2 ppm / % control Pythium ultimum 20 ppm: D: no control detected at this concentration; C: up to 50% control; B: from 50 to 99% control; A: a control of greater than 99%, i.e. no detectable colony growth; details: amended PDA agar, % reduction in colony growth vs control plate, 18° C.; for inhibition of growth at 2 ppm / inhibition of growth at 20 ppm: Globisporangium ultimum
Method: Testing was carried out on potato dextrose agar (PDA) amended with each compound at a test concentration of typically 20 ppm or 2 ppm. Amended agar was poured into three replicate 9 cm petri dishes. Each replicate dish was inoculated in the centre with a 5 mm agar plug taken from the leading edge of a culture aged between 2 and 7 days old; the age of the culture was dependant on the growth rate of the pathogen being tested. The test pathogens were Pythium ultimum and Phytophthora cinnamomi. Plates were incubated at 18° C. and the diameter of each colony measured before growth on the fastest growing plate reached the plate edge. This varied between 2 and 7 days depending on the growth rate of test pathogens. The % reduction in colony growth compared to the control plate was calculated for each pathogen. The results are provided in Table 1, in which D represents no control detected at this concentration; C represents up to 50% control; B from 50 to 99% control; and A represents a control of greater than 99%, i.e. no detectable colony growth.
Alternatively, or in addition, the same assay was conducted at descending test concentrations with 5-fold dilutions typically down to 0.032 ppm though sometimes as low as 0.00026 ppm, and an EC50 (the concentration at which 50% control would be achieved) was determined. The results are provided in Table 1 in which G represents no control detected at 20 ppm, F represents an EC50 of ≥20 ppm and E represents an EC50 of less than 20 ppm.

Phytophthora cactorum = assay: 96 well plate test; type: cell-based; details: 96 well plate assay, agar amended to 20, 2, 0.2 and 0.02 ppm, assessed after 2 to 3 days, read-out: EC50 Phytophthora spp. (Phytophthora cactorum)
Method: Compounds were screened in 96 well plates with 10 compounds per plate. Each compound was screened using agar amended to 20, 2, 0.2 and 0.02 ppm, with proline at 50 and 10 ppm and 0.2% DMSO used as controls. Each test concentration and standard was replicated twice on a plate. Compounds were screened against Phytophthora cactorum. The agar used in the test is a 1% potato dextrose agar. 1000 spores/mL agar were added to the appropriate agar. A ×10 stock solution in 2% DMSO was produced for each dose i.e. 200, 20, 2 and 0.2 ppm, and 10 μl of this added to the appropriate wells on the plate. An equivalent amount of 2% DMSO and proline stock at 500 and 100 ppm were added for the controls. To each well 90 μl of the appropriate agar spore suspension was added to give the required final well concentrations. Plates were incubated at room temperature (18° C.) and assessed after 2 to 3 days. The amount of pathogen growth in each well was compared to the DMSO controls and an EC50 concentration was calculated. The results are provided in Table 1 in which H represents no control detected at 20 ppm, G represents no control detected at 2 ppm (where the highest test concentration in the assay was 2 ppm), F represents an EC50 of ≥20 ppm, E represents an EC50 of less than 20 ppm.

Row | SMILES | EC50 (Phytophthora cactorum) [µg/mL] | inhibition of growth at 2 ppm (Pythium ultimum; 2 ppm) [%] | inhibition of growth at 20 ppm (Pythium ultimum) [%] | % control Pythium ultimum 2 ppm (Pythium ultimum; 2 ppm)
1 | Cc1cccnc1COc1nc2ccccc2n1-c1nnnn1C [Example 3] | ≥ 20 | 50 to 99 | > 99 | 
2 | COc1ccnc(COc2nc3ccccc3n2-c2nnnn2C)c1 [Example 4] | < 20 | > 99 | > 99 | 
3 | Cc1ccc(COc2nc3ccccc3n2-c2nnnn2C)nc1 [Example 6] | ≥ 20 | > 99 | > 99 | 
4 | Cn1nnnc1-n1c(OCc2ccncn2)nc2ccccc21 [Example 7] | < 20 | > 99 |  | 
5 | Clc1cncnc1-n1c(OCc2ccccn2)nc2ccccc21 [Example 8] | ≥ 20 | 50 to 99 |  | 
6 | COCCCOc1ccnc(COc2nc3ccccc3n2-c2ncncc2Cl)c1C [Example 10] | ≥ 20 | 50 to 99 |  | 
7 | Cc1ccnc(COc2nc3ccccc3n2-c2nnnn2C)c1 [Example 11] | < 20 | > 99 | > 99 | 
8 | COc1c(C)cnc(COc2nc3ccccc3n2-c2nnnn2C)c1C [Example 12] | < 20 | > 99 | > 99 | 
9 | COc1ccnc(COc2nc3ccccc3n2-c2nnnn2C)c1OC [Example 13] | < 20 | 50 to 99 | > 99 | 
10 | Cc1c(OCC(F)(F)F)ccnc1COc1nc2ccccc2n1-c1nnnn1C [Example 14] | < 20 | > 99 | > 99 | 
11 | Cn1nnnc1-n1c(OCc2nccs2)nc2ccccc21 [Example 16] | ≥ 20 | < 50 |  | 
12 | Cn1nnnc1-n1c(OCc2cccc(Br)n2)nc2ccccc21 [Example 17, 2-((6-bromopyridin-2-yl)methoxy)-1-(1-methyl-1H-tetrazol-5-yl)-1H-benzo[d]imidazole] | ≥ 20 | < 50 |  | 
13 | COc1ccnc(COc2nc3ccccc3n2-c2ncncc2Cl)c1 [Example 22] | ≥ 20 | 50 to 99 |  | 
14 | Clc1cncnc1-n1c(OCc2nccs2)nc2ccccc21 [Example 23] | ≥ 20 | 50 to 99 |  | 
15 | COc1c(C)cnc(COc2nc3ccccc3n2-c2ncncc2Cl)c1C [Example 24] | < 20 | 50 to 99 |  | 
16 | Cn1nnnc1-n1c(OCc2ccccn2)nc2c(Cl)cccc21 [Example 30] | < 20 | > 99 |  | 
17 | Cn1nnnc1-n1c(OCc2cccc(NCc3ccccc3)n2)nc2ccccc21 [Example 35, N-Benzyl-6-(((1-(1-methyl-1H-tetrazol-5-yl)-1H-benzo[d]imidazol-2-yl)oxy)methyl)pyridin-2-amine] | < 20 | > 99 |  | 
18 | CCNc1cccc(COc2nc3ccccc3n2-c2nnnn2C)n1 [Example 36] | < 20 | > 99 |  | 

Row | SMILES | EC50 (Phytophthora cactorum) [µg/mL] | inhibition of growth at 2 ppm (Pythium ultimum; 2 ppm) [%] | inhibition of growth at 20 ppm (Pythium ultimum) [%] | % control Pythium ultimum 2 ppm (Pythium ultimum; 2 ppm)
19 | CC(C)CCNc1cccc(COc2nc3ccccc3n2-c2nnnn2C)n1 [Example 37] | < 20 | > 99 |  | 
20 | Cn1nnnc1-n1c(OCc2cccc(NCCCc3ccccc3)n2)nc2ccccc21 [Example 38] | < 20 | > 99 |  | 
21 | Cn1nnnc1-n1c(OCc2cccc(NCCc3ccccc3)n2)nc2ccccc21 [Example 39] | < 20 | > 99 |  | 
22 | Cn1nnnc1-n1c(OCc2cccc(NCc3ccccn3)n2)nc2ccccc21 [Example 40] | < 20 | > 99 |  | 
23 | CCCNc1cccc(COc2nc3ccccc3n2-c2nnnn2C)n1 [Example 42] | < 20 | > 99 |  | 
24 | CCCCNc1cccc(COc2nc3ccccc3n2-c2nnnn2C)n1 [Example 43] | < 20 | > 99 |  | 
25 | Cn1nnnc1-n1c(OCc2cccc(NCc3ccco3)n2)nc2ccccc21 [Example 44] | < 20 | > 99 |  | 
26 | Cn1ccc(CNc2cccc(COc3nc4ccccc4n3-c3nnnn3C)n2)n1 [Example 45] | < 20 | > 99 |  | 
27 | Cn1nnnc1-n1c(OCc2cccc(NCC3CC3)n2)nc2ccccc21 [Example 47] | < 20 | > 99 |  | 
28 | CNc1cccc(COc2nc3ccccc3n2-c2nnnn2C)n1 [Example 48, N-Methyl-6-(((1-(1-methyl-1H-tetrazol-5-yl)-1H-benzo[d]imidazol-2-yl)oxy)methyl)pyridin-2-amine] | < 20 | > 99 |  | 
29 | CC(C)Nc1cccc(COc2nc3ccccc3n2-c2nnnn2C)n1 [Example 50, N-Isopropyl-6-(((1-(1-methyl-1H-tetrazol-5-yl)-1H-benzo[d]imidazol-2-yl)oxy)methyl)pyridin-2-amine] | < 20 | > 99 |  | 
30 | CC(C)CCCNc1cccc(COc2nc3ccccc3n2-c2nnnn2C)n1 [Example 51] | < 20 | > 99 |  | 
31 | CSc1ccnc(COc2nc3ccccc3n2-c2nnnn2C)c1 [Example 55] | < 20 | > 99 |  | 
32 | COc1ccc(COc2nc3ccccc3n2-c2nnnn2C)nc1 [Example 56] | ≥ 20 | < 50 |  | 
33 | Cn1nnnc1-n1c(OCc2cccc(N)n2)nc2c(Cl)cccc21 [Example 59] | < 20 | > 99 |  | 
34 | Cc1c(OC(F)(F)C(F)(F)F)ccnc1COc1nc2c(Cl)cccc2n1-c1nnnn1C [Example 60] | < 20 | > 99 |  | 
35 | COc1ccnc(COc2nc3c(Cl)cccc3n2-c2nnnn2C)c1 [Example 61] | < 20 | > 99 |  | 

Now from value to molecule, other results behind:

Row | EC50 (Phytophthora cactorum) [µg/mL] | SMILES | inhibition of growth at 2 ppm (Pythium ultimum; 2 ppm) [%] | inhibition of growth at 20 ppm (Pythium ultimum) [%] | % control Pythium ultimum 2 ppm (Pythium ultimum; 2 ppm)
36 | < 20 | COCCCOc1ccnc(COc2nc3c(Cl)cccc3n2-c2nnnn2C)c1C [Example 62] | > 99 |  | 
37 | < 20 | CC(C)CCCNc1cccc(COc2nc3c(Cl)cccc3n2-c2nnnn2C)n1 [Example 63] | > 99 |  | 
38 | < 20 | Cn1nnnc1-n1c(OCc2nc3ccccc3n2C)nc2ccccc21 [Example 64] | > 99 |  | 
39 | ≥ 20 | Cn1nnnc1-n1c(OCc2ccc3ccccc3n2)nc2ccccc21 [Example 65] | 50 to 99 |  | 
40 | < 20 | Cn1nnnc1-n1c(OCc2nc3ccccc3n2C)nc2c(Cl)cccc21 [Example 66] | > 99 |  | 
41 | ≥ 20 | Cn1nnnc1-n1c(OCc2cc([N+](=O)[O-])ccn2)nc2c(Cl)cccc21 [Example 69] | 50 to 99 |  | 
42 | < 20 | Cn1nnnc1-n1c(OCc2nc3ccccc3s2)nc2c(Cl)cccc21 [Example 70] | > 99 |  | 
43 | ≥ 20 | Cn1nnnc1-n1c(OCc2cccc(CO)n2)nc2c(Cl)cccc21 [Example 71] |  |  | D
44 | < 20 | Cn1nnnc1-n1c(OCc2cccc(NCCc3ccccc3)n2)nc2c(Cl)cccc21 [Example 73] | > 99 |  | 
45 | < 20 | Cn1nnnc1-n1c(OCc2cccc(NCCOc3ccccc3)n2)nc2c(Cl)cccc21 [Example 74] | > 99 |  | 
46 | ≥ 20 | Cn1nnnc1-n1c(OCc2cc(N3CCOCC3)ccn2)nc2c(Cl)cccc21 [Example 75] | 50 to 99 |  | 
47 | ≥ 20 | CCOc1ccnc(COc2nc3ccccc3n2-c2nnnn2C)c1 [Example 76] | > 99 |  | 
48 | < 20 | CCCOc1ccnc(COc2nc3ccccc3n2-c2nnnn2C)c1 [Example 77] | > 99 |  | 
49 | < 20 | COc1cc(F)cc2c1nc(OCc1ccccn1)n2-c1nnnn1C [Example 78] | 50 to 99 |  | 
50 | < 20 | Cn1nnnc1-n1c(OCc2cccc(NCC3CCCC3)n2)nc2ccccc21 [Example 80] | > 99 |  | 
51 | < 20 | Cn1nnnc1-n1c(OCc2cccc(NC3CCCC3)n2)nc2ccccc21 [Example 81] | > 99 |  | 
